These results are taken from PubChem BioAssay AID1259407 (Chemical Carcinogenesis Research Information System (CCRIS), 2018).

For the data set, the system named is CCRIS mutagenicity, Ames/micronucleus/aberration tests. The data set can be described thus: CCRIS mutagenicity studies.
Where [1] appears, read: Test System: AMES SALMONELLA TYPHIMURIUM, Strain/Indicator: TA100, Metabolic Activation: NONE, Method: PREINCUBATION
The mark [2] stands for this setting: Test System: AMES SALMONELLA TYPHIMURIUM, Strain/Indicator: TA102, Metabolic Activation: NONE, Method: PREINCUBATION
Where [3] appears, read: Test System: AMES SALMONELLA TYPHIMURIUM, Strain/Indicator: TA98, Metabolic Activation: NONE, Method: STANDARD PLATE.
Where [4] appears, read: Test System: AMES SALMONELLA TYPHIMURIUM, Strain/Indicator: TA98, Metabolic Activation: RAT, LIVER, S-9, AROCLOR 1254, Method: STANDARD PLATE.
Where [5] appears, read: Test System: AMES SALMONELLA TYPHIMURIUM, Strain/Indicator: TA100, Metabolic Activation: NONE, Method: STANDARD PLATE.
The mark [6] stands for this setting: Test System: AMES SALMONELLA TYPHIMURIUM, Strain/Indicator: TA98, Metabolic Activation: NONE, Method: PREINCUBATION

Calls of active or inactive are those of the source. The rule behind the calls is not given here.

As for `CC(C)(C)[N+](=O)[O-]`, the mutagenic call was “inactive; negative” under setting [1]; “inactive; negative” (Test System: AMES SALMONELLA TYPHIMURIUM, Strain/Indicator: TA100, Metabolic Activation: RAT, LIVER, S-9, AROCLOR, Method: PREINCUBATION); “inactive; negative” under setting [2]; “inactive; negative” (Test System: AMES SALMONELLA TYPHIMURIUM, Strain/Indicator: TA102, Metabolic Activation: RAT, LIVER, S-9, AROCLOR, Method: PREINCUBATION).

As to `COC(=O)[C@@H]1[C@H]2C[C@H]3c4[nH]c5ccccc5c4CCN3C[C@@H]2CC[C@@H]1O`, the mutagenic call was “inactive; inconclusive (previous evaluation negative)” (Test System: Mouse lymphoma, Strain/Indicator: L5178Y (tk+/tk-), Metabolic Activation: None, Method: Suspension/plate) and “inactive; inconclusive (previous evaluation negative)” (Test System: Mouse lymphoma, Strain/Indicator: L5178Y (tk+/tk-), Metabolic Activation: Rat, Liver, S-9, Aroclor 1254, Method: Suspension/plate).

For `O=[N+]([O-])c1c2ccccc2c2ccc3cccc4ccc1c2c43`, the mutagenic call is “inactive; negative” (Test System: AMES SALMONELLA TYPHIMURIUM, Strain/Indicator: TA98 (1,8-DNP6), Metabolic Activation: NONE, Method: STANDARD PLATE); “inactive; negative” (Test System: AMES SALMONELLA TYPHIMURIUM, Strain/Indicator: TA98 (NR), Metabolic Activation: NONE, Method: STANDARD PLATE); “inactive; negative” under setting [3]; “inactive; negative” (Test System: AMES SALMONELLA TYPHIMURIUM, Strain/Indicator: TA98, Metabolic Activation: NONE, Method: STANDARD PLATE (ANAEROBIC)); “inactive; negative” (Test System: AMES SALMONELLA TYPHIMURIUM, Strain/Indicator: TA98, Metabolic Activation: RAT, LIVER, HEPATOCYTES, AROCLOR 1254); “active; positive” (Test System: AMES SALMONELLA TYPHIMURIUM, Strain/Indicator: TA98, Metabolic Activation: RAT, LIVER, S-9, 3-METHYLCHOLANTHRENE, Method: STANDARD PLATE). In addition, the mutagenic call by setting is: under setting [4], “active; positive”; (Test System: AMES SALMONELLA TYPHIMURIUM, Strain/Indicator: TA98, Metabolic Activation: RAT, LIVER, S-9, BETA-NAPHTHOFLAVONE, Method: STANDARD PLATE) “active; positive”; (Test System: AMES SALMONELLA TYPHIMURIUM, Strain/Indicator: TA98, Metabolic Activation: RAT, LIVER, S-9, PHENOBARBITAL, Method: STANDARD PLATE) “inactive; negative”; under setting [5], “inactive; negative”; (Test System: AMES SALMONELLA TYPHIMURIUM, Strain/Indicator: TA100, Metabolic Activation: RAT, LIVER, S-9, AROCLOR 1254 (20 OR 50 µL), Method: STANDARD PLATE) “active; positive”; (Test System: CHINESE HAMSTER OVARY, Strain/Indicator: CHO-K1-BH4 (HGPRT), Metabolic Activation: NONE) “inactive; negative”. The mutagenic call was “inactive; negative” (Test System: CHO/HGPRT, Strain/Indicator: CHO-K1-BH4, Metabolic Activation: NONE); “inactive; negative” (Test System: CHO/HGPRT, Strain/Indicator: CHO-K1-BH4, Metabolic Activation: RAT, LIVER, HEPATOCYTES); “inactive; negative” (Test System: CHO/HGPRT, Strain/Indicator: CHO-K1-BH4, Metabolic Activation: RAT, LIVER, HEPATOCYTES, 3-METHYLCHOLANTHRENE); “inactive; negative” (Test System: CHO/HGPRT, Strain/Indicator: CHO-K1-BH4, Metabolic Activation: RAT, LIVER, HEPATOCYTES, AROCLOR 1254); “inactive; negative” (Test System: CHO/HGPRT, Strain/Indicator: CHO-K1-BH4, Metabolic Activation: RAT, LIVER, S-9); “inactive; negative” (Test System: CHO/HGPRT, Strain/Indicator: CHO-K1-BH4, Metabolic Activation: RAT, LIVER, S-9, 3-METHYLCHOLANTHRENE). The mutagenic call (Test System: CHO/HGPRT, Strain/Indicator: CHO-K1-BH4, Metabolic Activation: RAT, LIVER, S-9, AROCLOR 1254) was “inactive; negative”.

For the molecule `c1ccc2c(c1)ccc1cc3ccc4ccncc4c3cc12`, the mutagenic call is “inactive; negative” under setting [3]; “active; positive” (Test System: AMES SALMONELLA TYPHIMURIUM, Strain/Indicator: TA98, Metabolic Activation: RAT, LIVER, S-9, AROCLOR 1254 (10%), Method: STANDARD PLATE); “active; positive” under setting [4]; “inactive; negative” under setting [5]; “active; positive” (Test System: AMES SALMONELLA TYPHIMURIUM, Strain/Indicator: TA100, Metabolic Activation: RAT, LIVER, S-9, AROCLOR 1254 (10%), Method: STANDARD PLATE); “active; positive” (Test System: AMES SALMONELLA TYPHIMURIUM, Strain/Indicator: TA100, Metabolic Activation: RAT, LIVER, S-9, AROCLOR 1254, Method: STANDARD PLATE).

Turning to `O=C1O[C@H]([C@H](O)CO)C(O)=C1O`, the mutagenic call is “inactive; negative” (End Point: IN VIVO MICRONUCLEUS, Test System: BONE MARROW POLYCHROMATIC ERYTHROCYTES, Species: MOUSE, Strain/Sex: DDY/MALE, Route: IP); “inactive; negative” (Test System: AMES SALMONELLA TYPHIMURIUM, Strain/Indicator: TA97, Metabolic Activation: NONE, Method: PREINCUBATION); “inactive; negative” (Test System: AMES SALMONELLA TYPHIMURIUM, Strain/Indicator: TA97, Metabolic Activation: RAT, LIVER, S-9, AROCLOR 1254, Method: PREINCUBATION); “inactive; negative” under setting [2]; “inactive; negative” (Test System: AMES SALMONELLA TYPHIMURIUM, Strain/Indicator: TA102, Metabolic Activation: RAT, LIVER, S-9, AROCLOR 1254, Method: PREINCUBATION).

As to `CC(=O)Nc1ccc(S(=O)(=O)Nc2ccccn2)cc1`, the mutagenic call was “inactive; negative” under setting [6]; “inactive; negative” (Test System: AMES SALMONELLA TYPHIMURIUM, Strain/Indicator: TA98, Metabolic Activation: RAT, LIVER, S-9, AROCLOR 1254, Method: PREINCUBATION); “inactive; negative” under setting [1]; “inactive; negative” (Test System: AMES SALMONELLA TYPHIMURIUM, Strain/Indicator: TA100, Metabolic Activation: RAT, LIVER, S-9, AROCLOR 1254, Method: PREINCUBATION).

As for `COC(=O)C(=Cc1ccc(Br)o1)[N+](=O)[O-]`, under setting [6], the mutagenic call is “inactive; negative”.

For `CNC(=O)Oc1cccc2c1OC(C)(C)O2`, the mutagenic call (End Point: IN VIVO MICRONUCLEUS, Test System: BONE MARROW POLYCHROMATIC ERYTHROCYTES, Species: RABBIT, Strain/Sex: HYBRID HYLA/MALE, FEMALE, Route: ORAL (GAVAGE)) is “inactive; negative”; the mutagenic call (End Point: In vitro Chromosomal aberrations, Test System: Human lymphocytes, Metabolic Activation: Activation by unspecified source) is “active; positive”; the mutagenic call (End Point: In vitro Chromosomal aberrations, Test System: Human lymphocytes, Metabolic Activation: None) is “inactive; negative”.
